According to patent US20230129095A1, “PEPTIDE INHIBITORS OF INTERLEUKIN-23 RECEPTOR AND THEIR USE TO TREAT INFLAMMATORY DISEASES” (Protagonist Therapeutics, Inc., priority 2020, published 2023):
*1 amine or outer side, *2 acyl side, *3 side chain or, on linkers, in order; H or OH if unused. Where a SMILES comes first, the peptide text is derived from it. Bridges are numbered along the chain shown (N, C = ends). [ ]: non-standard residue; d: D form. X5 = CC(C)c1cccc(-c2cccc3c(C[C@H](N[*:1])C(=O)[*:2])c[nH]c23)c1; X8 = COc1cccc(-c2cccc3c(C[C@H](N[*:1])C(=O)[*:2])c[nH]c23)c1; Trp(7-Ph) = N[C@@H](Cc1c[nH]c2c(-c3ccccc3)cccc12)C(=O)O; X4 = O=C([C@H](Cc1c[nH]c2c(-c3ccsc3)cccc12)N[*:1])[*:2]; Abu(4-yl) = O=C([C@H](CC[*:3])N[*:1])[*:2]; 2Nal = N[C@@H](Cc1ccc2ccccc2c1)C(=O)O; AEF = NCCOc1ccc(C[C@H](N)C(=O)O)cc1; Pen = CC(C)(S)[C@H](N)C(=O)O; αMeK = C[C@](N)(CCCCN)C(=O)O

Experiments:
Format in all cases: in vitro ADME
Stability in rat plasma = details: both sexes, SD rat plasma, EDTA, 37° C., up to 24 hours, read-out: t1/2: Rat Plasma EDTA
Method: Peptides of interest (20 μM) were incubated with pre-warmed rat plasma (SD rat, mixed gender pooled, EDTA, filtered through 0.22 μm, BioreclamationIVT) at 37° C. Aliquots were taken at various time points up to 24 hours (e.g. 0, 0.25, 1, 3, 6 and 24 hr), and immediately quenched with 4 volumes of organic solvent (acetonitrile/methanol (1:1) and 0.1% formic acid, containing 1 μM internal standard). Quenched samples were stored at 4° C. until the end of the experiment and centrifuged at 4,000 rpm for 10 minutes. The supernatant were diluted 1:1 with deionized water and analyzed using LC-MS. Percentage remaining at each time point was calculated based on the peak area ratio (analyte over internal standard) relative to the initial level at time zero. Half-lives were calculated by fitting to a first-order exponential decay equation using GraphPad.

[1] = Stability in simulated intestinal fluid (SIF); details: 37° C.; for SIF t1/2: 100 fold dilution of standard SIF concentration, 20 μM; for half-life at 20 μM: pH 6.8, 100 fold dilution of standard SIF concentration, read-out: SIF t1/2 (converted)
Method: Studies were carried out in simulated intestinal fluid (SIF) and simulated gastric fluid (SGF) to evaluate gastric stability of the peptide inhibitors of the present invention. In addition, studies were carried out to assess redox stability of the peptide inhibitors of the present invention.
SIF was prepared by adding 6.8 g of monobasic potassium phosphate and 10.0 g of pancreatin to 1.0 L of water. After dissolution, the pH was adjusted to 6.8 using NaOH. DMSO stocks (2 mM) were first prepared for the test compounds. Aliquots of the DMSO solutions were dosed into 6 individual tubes, each containing 0.5 mL of SIF, which is pre-warmed to 37° C. The final test compound concentration was 20 μM. The vials were kept in a benchtop Thermomixer® for the duration of the experiment. At each timepoint (0, 5, 10, 20, 40, 60, or 360 minutes or 24 hours), 1.0 mL of acetonitrile containing 1% formic acid was added to one vial to terminate the reaction. Samples were stored at 4° C. until the end of the experiment. After the final timepoint is sampled, the tubes were mixed and then centrifuged at 3,000 rpm for 10 minutes. Aliquots of the supernatant were removed, diluted 1:1 into distilled water containing internal standard, and analyzed by LCMS/MS. Percent remaining at each timepoint was calculated based on the peak area response ratio of test to compound to internal standard. Time 0 was set to 100%, and all later timepoints were calculated relative to time 0. Half-lives were calculated by fitting to a first-order exponential decay equation using Graphpad.

[2] = Stability in cynomolgus monkey fecal homogenate (anaerobic); details: pH 6.8, 20% cynomolgus monkey fecal homogenate, 37° C., up to 24 hours, read-out: t1/2: Monkey Feces anaerobic (converted)
Method: (§1) Studies were carried out in human or cynomolgus monkey fecal homogenate to evaluate gastrointestinal stability of the peptide inhibitors of the present invention.
(§2) Fecal homogenate ([…]) was prepared by adding 4 mL of growth medium (1 liter contains 2 g peptone water powder, 2 g yeast extract, 0.1 g NaCl, 0.04 g KH2PO4, 0.01 g CaCl2.6H2O, 0.01 g MgSO4.7H2O, 2 mL Tween 80, 0.5 g bile salts, 0.5 g L-cysteine HCl, 2 g NaHCO3, and 10 μL Vitamin K, pH adjusted to 6.8, and sterilized by filtration through a 0.22 μm filter) to every gram of feces (pooled freshly collected human or cynomolgus monkey feces). The suspension was vortexed to break up large clumps, and homogenized using a bead mill homogenizer. Centrifuged the homogenate at 2800×g for 15 min. The supernatant is taken out and used for incubations. DMSO stocks (10 mM) were first prepared for the test compounds. Incubations were performed in an anaerobic chamber conditioned at 37° C. Aliquots of the DMSO solutions were dosed into 1.0 mL aliquots of 20% fecal homogenate, which are pre-warmed to 37° C. The final test compound concentration was 20 μM. At each timepoint (0, 20 min, 1, 3, 6, or 24 hours), 100 μL aliquot of each incubation mixture is taken out and added to separate tubes containing 300 μL of 50% acetonitrile/50% methanol and an internal standard to terminate the reaction. Samples were taken out of the anaerobic chamber and stored at 4° C. until the end of the experiment. After the final timepoint is sampled, the tubes were mixed and then centrifuged at 3,000 rpm for 10 minutes. Aliquots of the supernatant were removed, diluted 1:1 into distilled water containing 0.1% formic acid, and analyzed by LC/MS/MS. Percent remaining at each timepoint was calculated based on the peak area response ratio of test to compound to internal standard. Time 0 was set to 100%, and all later timepoints were calculated relative to time 0. Half-lives were calculated by fitting to a first-order exponential decay equation using Graphpad or Excel.

[3] = Stability in human fecal homogenate (anaerobic); details: pH 6.8, 20% human fecal homogenate, 37° C., up to 24 hours, read-out: t1/2: Human Feces anaerobic
Method: as §1, §2

[4] = 20% fecal homogenate (supernatant)

SMILES | half-life at 20 μM (Stability in rat plasma; pooled) [h] | SIF t1/2 [1] [h] | half-life at 20 μM [2] [h] | half-life at 20 μM [3] [h] | half-life at 20 μM [1] [h] | half-life at 20 μM (Stability in rat plasma) [h] | half-life at 20 μM [2, 4] [h] | half-life at 20 μM [3, 4] [h]
CC(=O)NCCCC[C@@H]1NC(=O)[C@H](Cc2c[nH]c3c(-c4ccccc4)cccc23)NC(=O)[C@H]([C@@H](C)O)NC(=O)[C@H](CCC(N)=O)NC(=O)[C@@H](NC(=O)[C@@H](CCCNC(=N)N)NC(C)=O)CCSC[C@@H](C(=O)N[C@@H](Cc2ccc(OCCN)cc2)C(=O)N[C@@H](Cc2ccc3ccccc3c2)C(=O)N[C@@](C)(CCCCN)C(=O)N[C@@H](CCCCNC(C)=O)C(=O)N[C@@H](CC(N)=O)C(=O)N[C@H](CC(C)C)C(N)=O)NC1=O [Peptide 3, Ac-[(D)Arg]-Abu-Q-T-[W(7-Ph)]-[Lys(Ac)]-[Cys]-Phe[4-(2-aminoethoxy)]-[2-Nal]-[a-MeLys]-[Lys(Ac)]-N-[(D)Leu]-NH2] (Ac-[dR][Abu(4-yl)]QT[Trp(7-Ph)]K(Ac)C[AEF][2Nal][αMeK]K(Ac)N[dL]-NH2; thioether 2-7) | > 24 | 24 | > 24 | > 24 |  |  |  | 
CC(=O)NCCCC[C@@H]1NC(=O)[C@H](Cc2c[nH]c3c(-c4cccc(C(C)C)c4)cccc23)NC(=O)[C@H]([C@@H](C)O)NC(=O)[C@H](CC(N)=O)NC(=O)[C@@H](NC(C)=O)C(C)(C)SSC(C)(C)[C@@H](C(=O)N[C@@H](Cc2ccc(OCCN)cc2)C(=O)N[C@@H](Cc2ccc3ccccc3c2)C(=O)N[C@@](C)(CCCCN)C(=O)N[C@@H](CCCCNC(C)=O)C(=O)N[C@@H](CC(N)=O)C(=O)N[C@H](CCCCN)C(N)=O)NC1=O [Peptide 11, Ac-[Pen]-N-T-[W(7-(3-iPrPh))]-[Lys(Ac)]-[Pen]-Phe[4-(2-aminoethoxy)]-[2-Nal]-[a-MeLys]-[Lys(Ac)]-N-[(D)Lys)]-NH2] (Ac-[Pen]NT[X5]K(Ac)[Pen][AEF][2Nal][αMeK]K(Ac)N[dK]-NH2; disulfide 1-6) | > 24 | 24 | > 24 | > 24 |  |  |  | 
CC(=O)NCCCC[C@@H]1NC(=O)[C@H](Cc2c[nH]c3c(-c4ccccc4)cccc23)NC(=O)[C@H]([C@@H](C)O)NC(=O)[C@H](CCC(N)=O)NC(=O)[C@@H](NC(=O)[C@@H](CCCNC(=N)N)NC(C)=O)CCSC[C@@H](C(=O)N[C@@H](Cc2ccc(OCCN)cc2)C(=O)N[C@@H](Cc2ccc3ccccc3c2)C(=O)N[C@@](C)(CCCCN)C(=O)N[C@@H](CCCCNC(C)=O)C(=O)N[C@@H](CC(N)=O)C(N)=O)NC1=O [Peptide 4, Ac-[(D)Arg]-[Abu]-Q-T-[W(7-Ph)]-[Lys(Ac)]-[Cys]-Phe[4-(2-aminoethoxy)]-[2-Nal]-[a-MeLys]-[Lys(Ac)]-NNH2] (Ac-[dR][Abu(4-yl)]QT[Trp(7-Ph)]K(Ac)C[AEF][2Nal][αMeK]K(Ac)N-NH2; thioether 2-7) | > 24 |  | 14.1 | > 24 | 5.1 |  |  | 
COc1cccc(-c2cccc3c(C[C@@H]4NC(=O)[C@H]([C@@H](C)O)NC(=O)[C@H](CC(N)=O)NC(=O)[C@@H](NC(C)=O)C(C)(C)SSC(C)(C)[C@@H](C(=O)N[C@@H](Cc5ccc(OCCN)cc5)C(=O)N[C@@H](Cc5ccc6ccccc6c5)C(=O)N[C@@](C)(CCCCN)C(=O)N[C@@H](CCCCNC(C)=O)C(=O)N[C@@H](CC(N)=O)C(=O)N[C@H](CCCCN)C(N)=O)NC(=O)[C@H](CCCCNC(C)=O)NC4=O)c[nH]c23)c1 [Peptide 8, Ac-[Pen]-N-T-[W(7-(3-OMePh))][Lys(Ac)]-[Pen]-Phe[4-(2-aminoethoxy)]-[2-Nal]-[a-MeLys]-[Lys(Ac)]-N-[(D)Lys)]-NH2] (Ac-[Pen]NT[X8]K(Ac)[Pen][AEF][2Nal][αMeK]K(Ac)N[dK]-NH2; disulfide 1-6) | > 24 | 24 | > 24 | > 24 |  |  |  | 
CC(=O)NCCCC[C@@H]1NC(=O)[C@H](Cc2c[nH]c3c(-c4ccccc4)cccc23)NC(=O)[C@H]([C@@H](C)O)NC(=O)[C@H](CCC(N)=O)NC(=O)[C@@H](NC(=O)[C@@H](CCCNC(=N)N)NC(C)=O)CCSC[C@@H](C(=O)N[C@@H](Cc2ccc(OCCN)cc2)C(=O)N[C@@H](Cc2ccc3ccccc3c2)C(=O)N[C@@](C)(CCCCN)C(=O)N[C@@H](CCCCNC(C)=O)C(=O)N[C@@H](CC(N)=O)C(=O)N[C@H](CCCCN)C(N)=O)NC1=O [Peptide 5, Ac-[(D)Arg]-[Abu]-Q-T-[W(7-Ph)]-[Lys(Ac)]-[Cys]-Phe[4-(2-aminoethoxy)]-[2-Nal]-[a-MeLys]-[Lys(Ac)]-N-[(D)Lys)]-NH2] (Ac-[dR][Abu(4-yl)]QT[Trp(7-Ph)]K(Ac)C[AEF][2Nal][αMeK]K(Ac)N[dK]-NH2; thioether 2-7) | > 24 |  | > 24 | > 24 | 6 |  |  | 
CC(=O)NCCCC[C@H](NC(=O)[C@](C)(CCCCN)NC(=O)[C@H](Cc1ccc2ccccc2c1)NC(=O)[C@H](Cc1ccc(OCCN)cc1)NC(=O)[C@H]1NC(=O)[C@H](CCC(N)=O)NC(=O)[C@H](Cc2c[nH]c3c(-c4ccsc4)cccc23)NC(=O)[C@H]([C@@H](C)O)NC(=O)[C@H](CC(N)=O)NC(=O)[C@@H](NC(C)=O)C(C)(C)SSC1(C)C)C(=O)N[C@@H](CC(N)=O)C(=O)N[C@H](CCCCN)C(N)=O [Peptide 2] (Ac-[Pen]NT[X4]Q[Pen][AEF][2Nal][αMeK]K(Ac)N[dK]-NH2; disulfide 1-6) |  | 24 |  |  |  | > 24 | > 24 | > 24
CC(=O)NCCCC[C@@H]1NC(=O)[C@H](Cc2c[nH]c3c(-c4ccccc4)cccc23)NC(=O)[C@H]([C@@H](C)O)NC(=O)[C@H](CCC(N)=O)NC(=O)[C@@H](NC(C)=O)CCSC[C@@H](C(=O)N[C@@H](Cc2ccc(OCCN)cc2)C(=O)N[C@@H](Cc2ccc3ccccc3c2)C(=O)N[C@@](C)(CCCCN)C(=O)N[C@@H](CCCCNC(C)=O)C(=O)N[C@@H](CC(N)=O)C(=O)N[C@H](CCCCN)C(N)=O)NC1=O [Peptide 19, Ac-[Abu]-Q-T-[W(7-Ph)]-[Lys(Ac)]-[Cys]-Phe[4-(2-aminoethoxy)]-[2-Nal]-[a-MeLys]-[Lys(Ac)]-N-[(D)Lys]-NH2] (Ac-[Abu(4-yl)]QT[Trp(7-Ph)]K(Ac)C[AEF][2Nal][αMeK]K(Ac)N[dK]-NH2; thioether 1-6) | > 24 |  | 21.8 | > 24 | 17.8 |  |  | 
